# Test results as given in patent publication US10004683B2, “Antimicrobial formulations” (Common Pharma, Inc., priority 2015, dated 2018).
# System: New Zealand White Rabbits
# Assay: Dermal irritation test, ISO 10993-10:2010
# Settings: rabbits inspected at 1, 24, 48 and 72 hours; scale 0 to 0.4 Negligible, 0.5 to 1.9 Slight, 2 to 4.9 Moderate, 5 to 8 Severe
# Procedure: The test was performed according to ISO 10993-10:2010. The test sample was 2% Noveon and 2% boric acid in water. A placebo was also tested which was only 2% Noveon in water. All testing was under GLP conditions. A negative control was used which was 0.9% Sodium Chloride for Injection, USP and a positive control was used which was 20% W/V of sodium dodecyl sulfate (SDS) in water.
# The test animals were inspected at times 1, 24, 48 and 72 hours.
smiles,measurement,value
"CCCCCCCCCCCCOS(=O)(=O)[O-].[Na+] [positive control, sodium dodecyl sulfate]",dermal irritation observational rankings,2-4
